Assay results as given in patent US4902712A, “Fluoroalkane derivatives” (Imperial Chemical Industries plc, priority 1985, dated 1990).

Legend:
TXA2 [1] = experiment: TXA2 antagonist properties (general statement, standard tests); settings: in words
From the text: (§1) As stated earlier, the compound of formula I is an antagonist of one or more of the actions of TXA2, for example certain of its actions on blood platelets, the vasculature and/or the lung.

TXA2 [2] = experiment: Test (a): rabbit aortal strip model (Piper and Vane); format: cell-based; settings: agonist TXA2 or U46619
Description: as §1
(a) The rabbit aortal strip model devised by Piper and Vane (Nature, 1969, 223, 29-35) using as agonist a freshly prepared sample of TXA2, generated by addition of arachidonic acid (25 μg) to citrated, platelet rich rabbit plasma (250 μl) and allowing the mixture to aggregate fully over 90 seconds before use; alternatively the TXA2 mimetic agent known as U46619 (described by R. L. Jones et alia in "Chemistry, Biochemistry and Pharmacological Activity of Prostanoids" edited by S. M. Roberts and F. Scheinmann, at page 211; Pergamon Press, 1979) may be used as the agonist;

[3] = target: T1, U46619 stimulated platelet aggregation (Homo sapiens, UniProt P21731); experiment: Test (b): blood platelet aggregation test (Born), human citrated platelet-rich plasma; format: cell-based; settings: averaged over several concentrations
T1 construct: aggregating human, citrated, platelet-rich plasma; endogenous in cells; host or cells: human platelets in citrated platelet-rich plasma
T1 sequence (P21731 1-343): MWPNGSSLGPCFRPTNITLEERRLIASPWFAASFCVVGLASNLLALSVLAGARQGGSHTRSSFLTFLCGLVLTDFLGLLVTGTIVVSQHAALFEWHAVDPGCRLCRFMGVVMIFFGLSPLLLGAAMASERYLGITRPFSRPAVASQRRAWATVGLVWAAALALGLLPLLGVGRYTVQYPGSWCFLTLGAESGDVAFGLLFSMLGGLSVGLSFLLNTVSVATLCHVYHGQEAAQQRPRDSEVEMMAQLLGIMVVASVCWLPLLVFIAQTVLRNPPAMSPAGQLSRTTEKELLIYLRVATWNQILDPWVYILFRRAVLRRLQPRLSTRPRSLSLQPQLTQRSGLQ
From the text: (b) a blood platelet aggregation test based on that described by Born (Nature, 1962, 194, 927-929) and involving:
(i) aggregating human, citrated, platelet-rich plasma by addition of the TXA2 mimetic agent U46619 so that a dose-response curve is generated;
(ii) generating a dose-response curve for U46619 stimulated platelet aggregation in the presence of increasing amounts of test compound (generally in the range 10^-5 M to 10^-10 M); and
(iii) calculating a KB value indicating potency of TXA2 antagonism for the test compound, averaged over several concentrations, from the calculated 50% response value for U46619 aggregation in the presence and absence of test compound; and […]

[4] = test system: U46619 induced bronchoconstriction; experiment: Test (c): bronchoconstriction test, Konzett-Rossler anaesthetised guinea-pig model; format: in vivo; settings: 2 hours after oral dosing at 0.005 mg/kg; ratio of U46619 concentration required to cause 50% bronchoconstriction in presence and absence of test compound
From the text: (c) a bronchoconstriction test involving measuring the inhibition by a test compound of the bronchoconstriction induced in the Konzett-Rossler, anaesthetised guinea-pig model (as modified by Collier and James, Brit. J. Pharmacol., 1967, 30, 283-307) by intravenous administration of the TXA2 mimetic agent, U46619 and involving:
(i) obtaining a cumulative dose-response curve to U46619 induced bronchoconstriction by intravenous administration of constant volumes of increasing concentrations of U46619 (0.2-4 ug/kg) in physiological saline solution and expressing bronchoconstriction as the maximum of that theoretically obtainable with no air flow to the test animal;
(ii) generating a cumulative dose-response curve to U46619 induced bronchoconstriction at 30 minute intervals for 3 hours after oral dosing of test compound; and
(iii) calculating a dose-ratio for the test compound (that is the ratio of concentration of U46619 required to cause 50% bronchoconstriction in the presence and absence of test compound) indicating the potency of TXA2 antagonism.

[5] = test system: U46619 induced hypertension; experiment: Test (d): U46619 induced hypertension in anaesthetised rats; format: in vivo, rat (Alderley Park strain); settings: 1 hour after an oral dose of 0.05 mg/kg
Description: (d) Male rats (Alderley Park strain) are anaesthetised with sodium pentobarbital and blood pressure is monitored at the carotid artery. The TXA2 mimetic agent U46619 is administered intravenously at 5 μg/kg via the jugular vein to produce a 20-30 mm Hg (2640-3970 pascal) increase in systolic blood pressure. The procedure is repeated twice to establish reproducibility of the effect. A test compound is then administered either intravenously (via the jugular vein) or orally (via a cannula) directly into the stomach and the animal is challenged with U46619, five minutes after dosing with test compound and then successively every ten minutes until the hypertensive effect of U46619 is no longer blocked.

Kb [3] | Structure (SMILES) | TXA2 antagonist properties (TXA2 [1]) | pA2 (TXA2 [2]) | dose ratio [4] | inhibition of U46619 induced hypertension [5]
 | O=C(O)CCC/C=C\C[C@@H]1CO[C@H](C(F)(F)F)O[C@@H]1c1ccccc1 (relative stereo) [5(Z)-7-([2,4,5-cis]-4-phenyl-2-trifluoromethyl-1,3-dioxan-5-yl)heptenoic acid, reference compound] | significantly lower TXA2 antagonist properties |  |  | 
13.2 nM | O=C(O)CC/C=C\C[C@@H]1CO[C@H](C(F)(F)F)O[C@@H]1c1ccccc1O (relative stereo) [compound of formula I, 4(Z)-6-([2,4,5-cis]-4-o-hydroxyphenyl-2-trifluoromethyl-1,3-dioxan-5-yl)hexenoic acid] | unexpectedly superior TXA2 antagonist properties | 7.58±0.05 | > 40 | > 60%
 | COc1ccccc1[C@H]1O[C@@H](C(F)(F)F)OC[C@H]1C/C=C\CCC(=O)O (relative stereo) [4(Z)-6-([2,4,5-cis]-4-o-methoxyphenyl-2-trifluoromethyl-1,3-dioxan-5-yl)hexenoic acid] | also possess TXA2 antagonist properties |  |  | 
